Data published in patent US20110190365A1, “Insecticidal 4-phenyl-1H-pyrazoles” (Bayer Crop Science AG, priority 2008, published 2011).

experiment: log P by HPLC on a reversed-phase column (C18), EEC Directive 79/831 Annex V.A8; assay type: physicochemical; conditions: HCOOH
Method: The stated log P values were determined in accordance with EEC Directive 79/831 Annex V.A8 by HPLC (High Performance Liquid Chromatography) using a reversed-phase column (C18).

Structure (SMILES) | log P (HCOOH)
Cc1cc(-n2nc(C(F)(F)Oc3cc(Cl)ccc3Cl)c(-c3cc(Cl)cc(C(F)(F)F)c3)c2N)ccc1C(=O)NCC(F)(F)C(F)F [I-A-Q2-296] | I-A-Q2-296: log P (HCOOH): 5.14
Cc1cc(-n2nc(C(F)(F)F)c(-c3cc(Cl)cc(Cl)c3)c2N)ccc1C(=O)N(C)C [I-A-Q2-056] | I-A-Q2-056: log P (HCOOH): 3.93
Cc1cc(-n2nc(C(F)(F)Oc3ccc(Cl)cc3Cl)c(-c3cc(Cl)cc(C(F)(F)F)c3)c2N)ccc1C(=O)NCC(F)(F)C(F)F [I-A-Q2-295] | I-A-Q2-295: log P (HCOOH): 5.27
Cc1cc(-n2nc(C)c(-c3ccc(F)cc3)c2N)ccc1C(=O)NCC(F)(F)C(F)F [I-A-Q2-326] | I-A-Q2-326: log P (HCOOH): 2.51
Cc1cc(-n2nc(C(F)(F)F)c(-c3cc(Cl)cc(Cl)c3)c2N)ccc1C(=O)NCCc1ncc(C(F)(F)F)cc1Cl [I-A-Q2-232] | I-A-Q2-232: log P (HCOOH): 4.95
Cc1cc(-n2nc(C(F)(F)F)c(-c3cc(Cl)cc(Cl)c3)c2N)ccc1C(=O)NC(C)C [I-A-Q2-229] | I-A-Q2-229: log P (HCOOH): 4.05
Cc1cc(-n2nc(C(F)(F)F)c(-c3cc(Cl)cc(Cl)c3)c2N)ccc1C(=O)NCc1ncccn1 [I-A-Q2-018] | I-A-Q2-018: log P (HCOOH): 3.56
Cc1cc(-n2nc(C(F)(F)F)c(-c3cc(Cl)cc(Cl)c3)c2N)ccc1C(=O)NCc1ccncn1 [I-A-Q2-260] | I-A-Q2-260: log P (HCOOH): 3.33
Cc1cnc2c(c1)CCCC2NC(=O)c1ccc(-n2nc(C(F)(F)F)c(-c3cc(Cl)cc(Cl)c3)c2N)cc1C (stereo not shown) [I-A-Q2-051] | I-A-Q2-051: log P (HCOOH): 3.06
COC(=O)c1ccc(-n2nc(C(F)(F)F)cc2N)cc1C [XI-A-080] | XI-A-080: log P (HCOOH): 1.97
Cc1cc(-n2nc(C(F)(F)F)c(-c3cc(Cl)cc(Cl)c3)c2N)ccc1C(=O)NC1CC1F (stereo not shown) [I-A-Q2-281] | I-A-Q2-281: log P (HCOOH): 3.97
Cc1cc(-n2nc(C(F)(F)F)c(-c3cc(Cl)cc(Cl)c3)c2N)ccc1C(=O)NCCNC(=O)c1ccccn1 [I-A-Q2-036] | I-A-Q2-036: log P (HCOOH): 3.68
Cc1cc(-n2nc(C)c(-c3cccc(Cl)c3)c2N)ccc1C(=O)NCC(F)(F)C(F)F [I-A-Q2-331] | I-A-Q2-331: log P (HCOOH): 2.85
CC(NC(=O)c1ccc(-n2nc(C(F)(F)F)c(-c3cc(F)cc(Cl)c3)c2N)cc1)c1ccccn1 (stereo not shown) [I-A-Q2-088] | I-A-Q2-088: log P (HCOOH): 2.99
Cc1cc(-n2nc(C(F)(F)C(F)(F)F)c(-c3ccc(Cl)cc3)c2N)ccc1C(=O)NCC(F)(F)C(F)F [I-A-Q2-321] | I-A-Q2-321: log P (HCOOH): 4.00
Nc1c(I)c(C(F)(F)F)nn1-c1ccc(C(=O)O)cc1 [XI-A-045] | XI-A-045: log P (HCOOH): 2.47
Cc1cc(-n2nc(C(F)(F)F)c(-c3cc(Cl)cc(Cl)c3)c2N)ccc1C(=O)NCc1ncc(C(F)(F)F)cc1Cl [I-A-Q2-230] | I-A-Q2-230: log P (HCOOH): 4.89
Nc1c(Cl)c(C(F)(F)F)nn1-c1ccc(C(=O)O)cc1 [XI-A-043] | XI-A-043: log P (HCOOH): 2.34
CC(NC(=O)c1ccc(-n2nc(C(F)(F)F)c(-c3cccc(F)c3)c2N)cc1)c1ccccn1 (stereo not shown) [I-A-Q2-186] | I-A-Q2-186: log P (HCOOH): 2.42

Structure (SMILES) | log P (HCOOH)
Cc1cc(-n2nc(C(F)(F)F)c(-c3cc(Cl)cc(Cl)c3)c2N)ccc1C(=O)N(C)CC(F)(F)F [I-A-Q2-236] | I-A-Q2-236: log P (HCOOH): 4.51
CC(NC(=O)c1ccc(-n2nc(C(F)(F)F)c(-c3ccc(Br)cc3)c2N)cc1)c1ccccn1 (stereo not shown) [I-A-Q2-192] | I-A-Q2-192: log P (HCOOH): 2.89
Cc1cc(-n2nc(C(F)(F)F)c(-c3cc(Cl)cc(Cl)c3)c2N)ccc1C(=O)NC(C)Cn1cccn1 (stereo not shown) [I-A-Q2-243] | I-A-Q2-243: log P (HCOOH): 3.78
Cc1cc(-n2nc(C)c(-c3ccc(Cl)cc3)c2N)ccc1C(=O)NCc1ccccn1 [I-A-Q2-366] | I-A-Q2-366: log P (HCOOH): 1.91
Cc1cc(-n2nc(C(F)(F)c3cccc(C(F)(F)F)c3)c(-c3cc(Cl)cc(C(F)(F)F)c3)c2N)ccc1C(=O)NCC(F)(F)C(F)F [I-A-Q2-286] | I-A-Q2-286: log P (HCOOH): 4.89
Cc1cc(-n2nc(C(F)(F)F)c(-c3cc(F)cc(Cl)c3)c2N)ccc1C(=O)NCC(F)(F)C(F)F [I-A-Q2-301] | I-A-Q2-301: log P (HCOOH): 3.75
Cc1nc(CNC(=O)c2ccc(-n3nc(C(F)(F)F)c(-c4cc(Cl)cc(Cl)c4)c3N)cc2C)no1 [I-A-Q2-059] | I-A-Q2-059: log P (HCOOH): 3.63
COC(=O)c1ccc(-n2nc(C(F)(F)F)c(Cl)c2N)cc1C [XI-A-081] | XI-A-081: log P (HCOOH): 2.76
CCC(NC(=O)c1ccc(-n2nc(C(F)(F)F)c(-c3cc(Cl)cc(Cl)c3)c2N)cc1)C(F)(F)F (stereo not shown) [I-A-Q2-067] | I-A-Q2-067: log P (HCOOH): 4.65
Cc1cc(-n2nc(C)c(-c3cc(F)ccc3F)c2N)ccc1C(=O)NCC(F)(F)C(F)F [I-A-Q2-332] | I-A-Q2-332: log P (HCOOH): 2.59
Cc1cc(-n2nc(C(F)(F)F)c(-c3cc(Cl)cc(Cl)c3)c2N)ccc1C(=O)NCC1CC1 [I-A-Q2-220] | I-A-Q2-220: log P (HCOOH): 4.11
Cc1cc(-n2nc(C)c(-c3ccc(Cl)cc3)c2N)ccc1C(=O)NCC(F)(F)C(F)F [I-A-Q2-330] | I-A-Q2-330: log P (HCOOH): 3.12
Cc1cc(-n2nc(C(F)(F)Cl)c(-c3cc(Cl)cc(C(F)(F)F)c3)c2N)ccc1C(=O)NCc1ccccn1 [I-A-Q2-364] | I-A-Q2-364: log P (HCOOH): 3.53
Cc1cc(C)nc(CNC(=O)c2ccc(-n3nc(C(F)(F)F)c(-c4cc(Cl)cc(Cl)c4)c3N)cc2C)n1 [I-A-Q2-245] | I-A-Q2-245: log P (HCOOH): 3.89
Cc1cc(-n2nc(C(F)(F)F)c(-c3cc(Cl)cc(Cl)c3)c2N)ccc1C(=O)NCc1ccncc1 [I-A-Q2-212] | I-A-Q2-212: log P (HCOOH): 2.27
Cc1cc(-n2nc(C(F)(F)F)c(-c3cc(Cl)cc(Cl)c3)c2N)ccc1C(=O)NC1CCN(C(=O)C2CC2)CC1 [I-A-Q2-203] | I-A-Q2-203: log P (HCOOH): 3.77
Cc1nc(CNC(=O)c2ccc(-n3nc(C(F)(F)F)c(-c4cc(Cl)cc(Cl)c4)c3N)cc2C)c(C)o1 [I-A-Q2-251] | I-A-Q2-251: log P (HCOOH): 3.84
Cc1cc(-n2nc(C(F)(F)F)c(-c3cc(Cl)cc(Cl)c3)c2N)ccc1C(=O)NC(c1cc(Cl)cc(Cl)c1)C(F)(F)F (stereo not shown) [I-A-Q2-043] | I-A-Q2-043: log P (HCOOH): 5.65
CC(C)CC(NC(=O)c1ccc(-n2nc(C(F)(F)F)c(-c3cc(Cl)cc(Cl)c3)c2N)cc1)C(F)(F)F (stereo not shown) [I-A-Q2-070] | I-A-Q2-070: log P (HCOOH): 5.25

same assay, conditions: HCOOH; Table 4, compounds of formula I-A-Q4

Structure (SMILES) | log P (HCOOH)
Cc1cc(C)cc(-c2c(C(F)(F)F)nn(-c3ccc(Cl)cn3)c2N)c1 [I-A-Q4-022] | I-A-Q4-022: log P (HCOOH): 5.22
Nc1c(-c2cc(Cl)cc(Cl)c2)c(C(F)(F)F)nn1-c1ccc(S(=O)(=O)NC2CC2)c(Br)c1 [I-A-Q4-111] | I-A-Q4-111: log P (HCOOH): 4.77
CC(C)c1nn(-c2ccc(Cl)cn2)c(N)c1-c1ccc(Cl)cc1 [I-A-Q4-027] | I-A-Q4-027: log P (HCOOH): 5.73
Nc1c(-c2ccc(Cl)cc2)c(C(F)(F)C(F)(F)F)nn1-c1ccc(Cl)cn1 [I-A-Q4-058] | I-A-Q4-058: log P (HCOOH): 5.44
Cc1nn(-c2ccc(Cl)cn2)c(N)c1-c1ccccc1Cl [I-A-Q4-032] | I-A-Q4-032: log P (HCOOH): 3.89
N#Cc1cc(-n2nc(C(F)(F)F)c(-c3cc(Cl)cc(Cl)c3)c2N)ccc1I [I-A-Q4-102] | I-A-Q4-102: log P (HCOOH): 5.94
Cc1nn(-c2ccc(Cl)cn2)c(N)c1-c1ccc(Cl)cc1Cl [I-A-Q4-021] | I-A-Q4-021: log P (HCOOH): 4.70
Nc1c(-c2cccc(Cl)c2)c(C(F)(F)F)nn1-c1ccc(C(=O)O)cc1 [I-A-Q4-096] | I-A-Q4-096: log P (HCOOH): 3.20
CCOC(=O)c1ccc(-n2nc(C(F)(F)F)c(-c3ccc(Cl)cc3Cl)c2N)cc1 [I-A-Q4-085] | I-A-Q4-085: log P (HCOOH): 4.57

same assay, conditions: HCOOH; compounds of the formula (IX), Table 11

Structure (SMILES) | log P (HCOOH)
Nc1[nH]nc(C(F)(F)F)c1-c1ccc(F)cc1 [IX-202] | IX-202: log P (HCOOH): 2.16

same assay, conditions: HPLC, reversed-phase C18, mobile phase with formic acid

Structure (SMILES) | log P (HCOOH)
Cc1nn(-c2ccc(-n3cncn3)c(C#N)c2)c(N)c1-c1ccc(F)cc1Cl [I-A-Q1-052] | I-A-Q1-052: log P (HCOOH): 2.43
N#Cc1cc(-n2nc(C(F)(F)Oc3ccc(Cl)cc3)c(-c3cc(Cl)cc(C(F)(F)F)c3)c2N)ccc1-n1cncn1 [I-A-Q1-071] | I-A-Q1-071: log P (HCOOH): 4.84
N#Cc1cc(-n2nc(C(F)(F)F)c(-c3ccc(F)c(Cl)c3)c2N)ccc1-n1cncn1 [I-A-Q1-036] | I-A-Q1-036: log P (HCOOH): 3.24
N#Cc1cc(-n2nc(C(F)(F)F)c(-c3ccc(I)cc3)c2N)ccc1-n1cncn1 [I-A-Q1-043] | I-A-Q1-043: log P (HCOOH): 3.61
N#Cc1cc(-n2nc(C(F)(F)F)c(-c3cc(Cl)cc(Cl)c3)c2N)ccc1-n1nc(C(F)F)cc1C(F)F [I-A-Q1-080] | I-A-Q1-080: log P (HCOOH): 4.64
N#Cc1cc(-n2nc(C(F)(F)F)c(-c3ccc(Cl)c(Cl)c3)c2N)ccc1-n1cncn1 [I-A-Q1-031] | I-A-Q1-031: log P (HCOOH): 3.60
N#Cc1cc(-n2nc(C(F)(F)C(F)(F)F)c(-c3cc(C(F)(F)F)cc(C(F)(F)F)c3)c2N)ccc1-n1cncn1 [I-A-Q1-050] | I-A-Q1-050: log P (HCOOH): 4.34
Cc1nn(-c2ccc(-n3cncn3)c(C#N)c2)c(N)c1-c1cccc(Cl)c1 [I-A-Q1-053] | I-A-Q1-053: log P (HCOOH): 2.66
Cc1cc(C)cc(-c2c(C(F)(F)F)nn(-c3ccc(-n4cncn4)c(C#N)c3)c2N)c1 [I-A-Q1-038] | I-A-Q1-038: log P (HCOOH): 3.33
CCc1nn(-c2ccc(-n3cncn3)c(C#N)c2)c(N)c1-c1ccc(Cl)cc1 [I-A-Q1-062] | I-A-Q1-062: log P (HCOOH): 3.09
N#Cc1cc(-n2nc(C(F)(F)Oc3ccccc3)c(-c3cc(Cl)cc(C(F)(F)F)c3)c2N)ccc1-n1cncn1 [I-A-Q1-074] | I-A-Q1-074: log P (HCOOH): 4.33
N#Cc1cc(-n2nc(C(F)(F)F)c(-c3cc(Cl)cc(Cl)c3)c2N)ccc1-n1ccnc1C#N [I-A-Q1-077] | I-A-Q1-077: log P (HCOOH): 4.05
COc1ccc(-c2c(C)nn(-c3ccc(-n4cncn4)c(C#N)c3)c2N)cc1 [I-A-Q1-058] | I-A-Q1-058: log P (HCOOH): 2.11
